pKi: −log10 of the molar value.

As a reminder, the pKi is −log10 of the Ki, conventionally taken in molar units.

Sequence of Platelet-activating factor receptor (P21556 whole entry): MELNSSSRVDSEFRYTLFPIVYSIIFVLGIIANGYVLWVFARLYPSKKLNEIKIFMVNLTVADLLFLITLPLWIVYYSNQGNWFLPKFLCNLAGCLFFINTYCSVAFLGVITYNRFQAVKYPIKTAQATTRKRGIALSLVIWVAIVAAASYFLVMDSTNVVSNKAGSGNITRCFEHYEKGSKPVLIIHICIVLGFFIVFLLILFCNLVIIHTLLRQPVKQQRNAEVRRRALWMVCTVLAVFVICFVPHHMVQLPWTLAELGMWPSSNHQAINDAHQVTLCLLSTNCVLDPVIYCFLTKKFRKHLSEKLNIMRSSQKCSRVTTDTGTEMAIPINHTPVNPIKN

The experiment addresses Platelet-activating factor receptor (Cavia porcellus, UniProt P21556). The experiment is described as follows: Displacement of [3H]-WEB 2086 from Platelet activating factor receptor (guinea pig) transgenic mouse muscle membrane. A general note: Displacement assays read how much labelled ligand stays bound in the presence of the test substance.
Molecule `C[C@@H]1C(=O)O[C@H]2[C@H](O)[C@]34[C@@H]5OC(=O)[C@]3(OC3OC(=O)[C@H](O)C34C(C(C)(C)C)[C@H]5O)[C@@]12O` (single isomer, unassigned) showed a pKi of 5.37. Under `C[C@@H]1C(=O)OC2[C@H](O)C34C5OC(=O)C3(OC3OC(=O)[C@H](OCc6ccccc6)C34[C@@H](C(C)(C)C)[C@H]5F)[C@]21O` (some centres undefined) stands 7.00; under `C[C@@H]1C(=O)O[C@H]2[C@H](O)[C@@]34[C@H]5CC(C(C)(C)C)[C@]36[C@@H](OC(=O)[C@@H]6O)O[C@@]4(C(=O)O5)[C@@]12O` (single isomer, unassigned) [GINKOLIDE B], 6.06.

Molecule `C[C@@H]1C(=O)OC2[C@H](O)C34C5OC(=O)C3(OC3OC(=O)[C@H](OCc6ccccc6)C34[C@@H](C(C)(C)C)[C@H]5O)[C@]21O` (some centres undefined) gave a negative logarithm of the Ki (pKi) of 6.22. Under `CC(=O)O[C@H]1C2OC(=O)C34OC5OC(=O)[C@H](O)C5([C@H]1C(C)(C)C)C23[C@@H](O)C1OC(=O)[C@@H](C)[C@@]14O` (some centres undefined) stands 5.11.

For `C[C@@H]1C(=O)OC2[C@H](O)C34C5OC(=O)C3(OC3OC(=O)[C@H](OCc6ccccc6)C34[C@@H](C(C)(C)C)[C@@H]5O)[C@]21O` (some centres undefined), the pKi was 5.78. Molecule `C[C@@H]1C(=O)OC2[C@H](O)C34C5OC(=O)C3(OC3OC(=O)[C@H](O)C34[C@@H](C(C)(C)C)[C@H]5F)[C@]21O` (some centres undefined) gave a pKi of 6.00.

The molecule `CCN[C@H]1C2OC(=O)C34OC5OC(=O)[C@H](O)C5([C@H]1C(C)(C)C)C23[C@@H](O)C1OC(=O)[C@@H](C)[C@@]14O` (some centres undefined) had a negative-log Ki (pKi) of 5.79. To `CN[C@H]1C2OC(=O)C34OC5OC(=O)[C@H](O)C5([C@H]1C(C)(C)C)C23[C@@H](O)C1OC(=O)[C@@H](C)[C@@]14O` (some centres undefined) belongs 6.21; to `C[C@@H]1C(=O)OC2[C@H](O)C34C5OC(=O)C3(OC3OC(=O)[C@H](O)C34[C@@H](C(C)(C)C)[C@H]5N)[C@]21O` (some centres undefined), 5.06; to `C[C@@H]1C(=O)OC2[C@H](O)C34C5OC(=O)C3(OC3OC(=O)[C@H](O)C34[C@@H](C(C)(C)C)[C@H]5Cl)[C@]21O` (some centres undefined), 6.96. Under `C[C@@H]1C(=O)O[C@H]2[C@H](O)[C@]34[C@@H]5OC(=O)[C@]3(OC3OC(=O)[C@H](O)C34C(C(C)(C)C)[C@@H]5O)[C@@]12O` (single isomer, unassigned) stands 4.90. As for `C[C@@H]1C(=O)OC2[C@H](O)C34C5C[C@H](C(C)(C)C)C36C(OC(=O)[C@@H]6OCc3ccccc3)OC4(C(=O)O5)[C@]21O` (some centres undefined), the pKi was 6.92. Under `C[C@@H]1C(=O)OC2[C@H](O)C34C5OC(=O)C3(OC3OC(=O)[C@H](O)C34[C@@H](C(C)(C)C)[C@H]5N=[N+]=[N-])[C@]21O` (some centres undefined) stands 6.26.
